Marks after values point to notes of the source that are not given here.
System: osteoclast differentiation
Assay: Osteoclast differentiation in co-culture of mouse bone marrow cells and ST2 cells, TRAP staining (Examples 8-9)
Assay type: cell-based
Settings: for % number of osteoclast (vs. solvent control group): 0.1 μM each, day 7; for activity at 0.1 µM: Mus musculus, Osteoclast, 168 h, Individual treatment (compounds), day 7, read-out: % number of osteoclast (vs. solvent control group)
In short: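 Bone marrow cells from 6-8-week male ddY mice were co-cultured with ST2 stromal cells under 10^−8 M vitamin D3 and 10^−8 M dexamethasone, with compounds at 0.1 μM final (0.1% DMSO control), refreshed on days 3 and 5. On day 7, TRAP-positive osteoclasts with ≥6 nuclei were counted and expressed as % of solvent control (n=4).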

[1] = Combination treatment (alendronic acid + compounds)
[2] = Combination treatment (risedronic acid + compounds)

Structure (SMILES)	% number of osteoclast (vs. solvent control group) [1]	% number of osteoclast (vs. solvent control group) [2]	activity at 0.1 µM [%]
CNc1nc(-c2ccc(OCCCCCOc3ccc(C(=N)NO)cc3)cc2)c(CCN2CCSCC2)s1 [Compound 262, N-hydroxy-4-(5-{4-[2-methylamino-5-(2-thiomorpholin-4-yl-ethyl)-thiazol-4-yl]-phenoxy}-pentyloxy)-benzamidine]	24 ± 2.6^ab %	7 ± 4.9^ac %	47 ± 4.2
CN(C)c1nc(-c2ccc(OCCCCCOc3ccc(C(=N)NO)cc3)cc2)c(CCN2CCOCC2)s1 [Compound 266, N-hydroxy-4-(5-{4-[2-dimethylamino-5-(2-morpholin-4-yl-ethyl)-thiazol-4-yl]-phenoxy}-pentyloxy)-benzamidine]	36 ± 9.6^ab %	26 ± 4.3^ac %	64 ± 4
CN(C)c1nc(-c2ccc(OCCCCCOc3ccc(C(=N)NO)cc3)cc2)c(CCN2CCSCC2)s1 [Compound 267, N-hydroxy-4-(5-{4-[2-dimethylamino-5-(2-thiomorpholin-4-yl-ethyl)-thiazol-4-yl]-phenoxy}-pentyloxy)-benzamidine]	33 ± 5.3^ab %	13 ± 2.4^ac %	68 ± 8.6
CC(C)C(=O)N(C)c1nc(-c2ccc(OCCCCCOc3ccc(C(=N)NO)cc3)cc2)c(CCN2CCOCC2)s1 [Compound 268, N-hydroxy-4-(5-{4-[2-(isobutyryl-methyl-amino)-5-(2-morpholin-4-yl-ethyl)-thiazol-4-yl]-phenoxy}-pentyloxy)-benzamidine]	28 ± 1.7^b %	17 ± 3.4^ac %	52 ± 9.1
N=C(NO)c1ccc(OCCCCCOc2ccc(-c3nc(N(CCN4CCOCC4)Cc4ccccc4)sc3CCN3CCOCC3)cc2)cc1 [Compound 269, N-hydroxy-4-(5-{4-[2-[benzyl-(2-morpholin-4-yl-ethyl)-amino]-5-(2-morpholin-4-yl-ethyl)-thiazol-4-yl]-phenoxy}-pentyloxy)-benzamidine]	23 ± 5.2^ab %	17 ± 4.4^ac %	38 ± 3.7
CCN(CC)c1nc(-c2ccc(OCCCCCOc3ccc(C(=N)NO)cc3)cc2)c(CCN2CCOCC2)s1 [Compound 270, N-hydroxy-4-(5-{4-[2-diethylamino-5-(2-morpholin-4-yl-ethyl)-thiazol-4-yl]-phenoxy}-pentyloxy)-benzamidine]	28 ± 4.5^b %	14 ± 2.1^ac %	45 ± 6.9
COCCN(CCOC)c1nc(-c2ccc(OCCCCCOc3ccc(C(=N)NO)cc3)cc2)c(CCN2CCOCC2)s1 [Compound 271, N-hydroxy-4-(5-{4-[2-[bis-(2-methoxy-ethyl)-amino]-5-(2-morpholin-4-yl-ethyl)-thiazol-4-yl]-phenoxy}-pentyloxy)-benzamidine]	13 ± 3.7^ab %	16 ± 2.9^ac %	30 ± 5.3
N=C(NO)c1ccc(OCCCCCOc2ccc(-c3nc(N4CCOCC4)sc3CCN3CCSCC3)cc2)cc1 [Compound 273, N-hydroxy-4-(5-{4-[2-morpholin-4-yl-5-(2-thiomorpholin-4-yl-ethyl)-thiazol-4-yl]-phenoxy}-pentyloxy)-benzamidine]	25 ± 4.5^ab %	11 ± 2.9^ac %	53 ± 3.4
CN1CCN(CCc2sc(N3CCOCC3)nc2-c2ccc(OCCCCCOc3ccc(C(=N)NO)cc3)cc2)CC1 [Compound 274, N-hydroxy-4-[5-(4-{5-[2-(4-methyl-piperazin-1-yl)-ethyl]-2-morpholin-4-yl-thiazol-4-yl}-phenoxy)-pentyloxy]-benzamidine]	31 ± 2.9^ab %	13 ± 1.3^ac %	65 ± 8.9
